Data from patent US12570647B2 (Saint Louis University, priority 2021, dated 2026).
Converted amounts (≈) assume the structure as drawn.

System: S. aureus ATCC25923
Test: S. aureus MIC80 determination, broth microdilution (CLSI) in CAMHB
Format: cell-based
Settings: Staphylococcus aureus, ATCC25923; Table 1; S. aureus ATCC 25923; growth inhibition ≥80% vs vehicle, 16-24 h; read-out: ATCC 25923 MIC80
Experimental: S. Aureus MIC80 determinations in S. aureus ATCC25923 or in multidrug-resistant strains AR215, AR217 and AR255. MIC80's were determined by the broth microdilution method recommended by the Clinical and Laboratory Standards Institute (CLSI) in Cation-adjusted Mueller-Hinton broth (CAMHB). (Cao et al., 2018). In the preliminary screening, three compound concentrations were used: 5.8, 20.4, and 71.4 μM; for quantitative MIC80 measurements, a 1.5-fold dilution series of the compounds was prepared in CAMHB. Overnight bacterial culture was added to the diluted compounds in a 96-well plate after adjusting the bacterial concentration to achieve a 5×10^5 CFU/mL final concentration. After 16-24 h incubation at 35±2° C., the plates were read at 600 nm in a microplate reader. The MIC80 was defined as the concentration of an antibacterial agent that inhibited bacteria growth ≥80% compared to vehicle-treated control cultures. All values were determined at least twice independently, and the average number is reported.

SMILES | MIC80 [µM]
Cc1cc(Cl)cc2sc(N(CCCn3ccnc3)S(=O)(=O)C3CCCCC3)nc12 [Example 24, N-(3-(1H-imidazol-1-yl)propyl)-N-(6-chloro-4-methylbenzo[d]thiazol-2-yl)cyclohexanesulfonamide] | 13.2 (≈ 5.98 µg/mL)
Cc1cc(Cl)cc2sc(NCCCn3ccnc3)nc12 [Example 1, N-(3-(1H-imidazol-1-yl)propyl)-6-chloro-4-methylbenzo[d]thiazol-2-amine] | 19.8 (≈ 6.08 µg/mL)
Cc1cc(Cl)cc2sc(N(CC3CCNC3)C(=O)C3CCC3)nc12 (centres unmarked) [Example 40, N-(6-chloro-4-methyl-1,3-benzothiazol-2-yl)-N-[(pyrrolidin-3-yl)methyl]cyclobutanecarboxamide] | 29.6 (≈ 10.8 µg/mL)
Cc1cc(Cl)cc2sc(N(CCCn3ccnc3)C(=O)c3ccccc3)nc12 [Example 3, N-(3-(1H-imidazol-1-yl)propyl)-N-(6-chloro-4-methylbenzo[d]thiazol-2-yl)benzamide] | 3.9 (≈ 1.6 µg/mL)
NCc1ccc2nc(N(CCCn3ccnc3)C(=O)C3CC3)sc2c1 [Example 51] | > 100
Cc1cc(Cl)cc2sc(N(CC3CCCNC3)C(=O)C3CC3)nc12 (centres unmarked) [Example 42, N-(6-chloro-4-methyl-1,3-benzothiazol-2-yl)-N-[(piperidin-3-yl)methyl]cyclopropanecarboxamide] | 66.7 (≈ 24.3 µg/mL)
NCc1ccc2nc(N(CCCn3ccnc3)C(=O)c3ccco3)sc2c1 [Example 49, N-[6-(aminomethyl)-1,3-benzothiazol-2-yl]-N-[3-(1H-imidazol-1-yl)propyl]furan-2-carboxamide] | > 100
Cc1cc(Cl)cc2sc(N(CCCn3ccnc3)C(=O)c3ccc(C(=O)O)cc3)nc12 [Example 12, 4-((3-(1H-imidazol-1-yl)propyl)(6-chloro-4-methylbenzo[d]thiazol-2-yl)carbamoyl)benzoic acid] | > 100
CC(=O)N1CCN(c2nc3c(C)cc(Cl)cc3s2)CC1 [Example 31, 1-(4-(6-chloro-4-methylbenzo[d]thiazol-2-yl)piperazin-1-yl)ethan-1-one] | > 100
Cc1cc(Cl)cc2sc(N(CCCn3cccc3)C(=O)c3ccco3)nc12 [Example 44, N-(6-chloro-4-methyl-1,3-benzothiazol-2-yl)-N-[3-(1H-pyrrol-1-yl)propyl]furan-2-carboxamide] | > 100
Cc1cc(Cl)cc2sc(N(CCCn3ccnc3)S(=O)(=O)c3cccs3)nc12 [Example 22, N-(3-(1H-imidazol-1-yl)propyl)-N-(6-chloro-4-methylbenzo[d]thiazol-2-yl)thiophene-2-sulfonamide] | 3.9 (≈ 1.77 µg/mL)
Cc1nc(Cl)cc2sc(N(CCCn3ccnc3)C(=O)C3CC3)nc12 [Example 55, N-{6-chloro-4-methyl-[1,3]thiazolo[4,5-c]pyridin-2-yl}-N-[3-(1H-imidazol-1-yl)propyl]cyclopropanecarboxamide] | 100 (≈ 37.6 µg/mL)
Cc1cc(Cl)cc2sc(NC(=O)C3CC3)nc12 [Example 61] | > 100
CSCc1ccc(C(=O)N(CCCn2ccnc2)c2nc3c(C)cc(Cl)cc3s2)o1 [Example 20, N-(3-(1H-imidazol-1-yl)propyl)-N-(6-chloro-4-methylbenzo[d]thiazol-2-yl)-5-((methylthio)methyl)furan-2-carboxamide] | 2.9 (≈ 1.34 µg/mL)
Cc1cc(Cl)cc2sc(N(C[C@H]3CC[C@H](N)CC3)C(=O)C3CC3)nc12 [Example 45, N-(6-chloro-4-methyl-1,3-benzothiazol-2-yl)-N-{[(1r,4r)-4-aminocyclohexyl]methyl}cyclopropanecarboxamide] | 19.8 (≈ 7.48 µg/mL)
Cc1cc(Cl)cc2sc(N3CCC(O)CC3)nc12 [Example 32, 1-(6-chloro-4-methylbenzo[d]thiazol-2-yl)piperidin-4-ol] | > 100
Cc1cc(Cl)cc2sc(N(CCCn3ccnc3)Cc3ccccc3)nc12 [Example 26, N-(3-(1H-imidazol-1-yl)propyl)-N-benzyl-6-chloro-4-methylbenzo[d]thiazol-2-amine] | 3.9 (≈ 1.55 µg/mL)
Cc1cc(Cl)cc2sc(N(CC3CCNCC3)C(=O)C3CCC3)nc12 [Example 37, N-(6-chloro-4-methylbenzo[d]thiazol-2-yl)-N-(piperidin-4-ylmethyl)cyclobutanecarboxamide] | 19.8 (≈ 7.48 µg/mL)
Cc1cc(Cl)cc2sc(N(CC3CCN(C(=O)OC(C)(C)C)CC3)C(=O)C3CCC3)nc12 [Example 56] | > 100
Cc1cc(Cl)cc2sc(N(CCCn3ccnc3)C(=O)C3CCCO3)nc12 (centres unmarked) [Example 14, N-(3-(1H-imidazol-1-yl)propyl)-N-(6-chloro-4-methylbenzo[d]thiazol-2-yl)tetrahydrofuran-2-carboxamide] | 29.6 (≈ 12 µg/mL)
Cc1cc(Cl)cc2sc(N3CCC(N)CC3)nc12 [Example 33, 1-(6-chloro-4-methyl-1,3-benzothiazol-2-yl)piperidin-4-amine] | 66.7 (≈ 18.8 µg/mL)

SMILES | MIC80 [µM]
Cc1cc(Cl)cc2sc(N(CC3CCNC3)C(=O)C3CC3)nc12 (centres unmarked) [Example 41, N-(6-chloro-4-methylbenzo[d]thiazol-2-yl)-N-(pyrrolidin-3-ylmethyl)cyclopropanecarboxamide] | 44.4 (≈ 15.5 µg/mL)
Cc1cc(Cl)cc2sc(N(CCCn3ccnc3)C(=O)CN)nc12 [Example 36, 2-amino-N-(6-chloro-4-methyl-1,3-benzothiazol-2-yl)-N-[3-(1H-imidazol-1-yl)propyl]acetamide] | > 100
Cc1cc(Cl)cc2sc(N(CCCn3ccnc3)C(=O)c3ccoc3)nc12 [Example 7, N-(3-(1H-imidazol-1-yl)propyl)-N-(6-chloro-4-methylbenzo[d]thiazol-2-yl)furan-3-carboxamide] | 2.6 (≈ 1.04 µg/mL)
NCc1cccc2sc(N(CCCn3ccnc3)C(=O)c3ccco3)nc12 [Example 46, N-[4-(aminomethyl)-1,3-benzothiazol-2-yl]-N-[3-(1H-imidazol-1-yl)propyl]furan-2-carboxamide] | > 100
Cc1cc(Cl)cc2sc(N3CCC(CN)CC3)nc12 [Example 34] | 44.4 (≈ 13.1 µg/mL)
NCc1cccc2sc(N(CCCn3ccnc3)C(=O)C3CC3)nc12 [Example 48, N-[4-(aminomethyl)-1,3-benzothiazol-2-yl]-N-[3-(1H-imidazol-1-yl)propyl]cyclopropanecarboxamide] | > 100
Cc1cc(Cl)cc2sc(N(CCCn3ccnc3)C(=O)c3ccc[nH]3)nc12 [Example 19, N-(3-(1H-imidazol-1-yl)propyl)-N-(6-chloro-4-methylbenzo[d]thiazol-2-yl)-1H-pyrrole-2-carboxamide] | 1.3 (≈ 0.52 µg/mL)
Cc1cc(C(=O)N(CCCn2ccnc2)c2nc3c(C)cc(Cl)cc3s2)oc1C [Example 16, N-(3-(1H-imidazol-1-yl)propyl)-N-(6-chloro-4-methylbenzo[d]thiazol-2-yl)-4,5-dimethylfuran-2-carboxamide] | 3.9 (≈ 1.67 µg/mL)
Cc1cc(Cl)cc2sc(N(CC3CCNCC3)C(=O)C3CC3)nc12 [Example 39] | 19.8 (≈ 7.21 µg/mL)
Cc1cc(Cl)cc2sc(N(CCCn3ccnc3)S(=O)(=O)c3ccccc3)nc12 [Example 23, N-(3-(1H-imidazol-1-yl)propyl)-N-(6-chloro-4-methylbenzo[d]thiazol-2-yl)benzenesulfonamide] | 3.9 (≈ 1.74 µg/mL)
Cc1cc(Cl)cc2sc(N3CCNCC3)nc12 [Example 30, 6-chloro-4-methyl-2-(piperazin-1-yl)-1,3-benzothiazole] | 100 (≈ 26.8 µg/mL)
Cc1cc(Cl)cc2sc(N(CCCn3ccnc3)C(=O)C3CCC3)nc12 [Example 17, N-(3-(1H-imidazol-1-yl)propyl)-N-(6-chloro-4-methylbenzo[d]thiazol-2-yl)cyclobutanecarboxamide] | 2.6 (≈ 1.01 µg/mL)
Cc1cc(Cl)cc2sc(N(CCCn3ccnc3)C(=O)/C=C/c3ccco3)nc12 [Example 6, (E)-N-(3-(1H-imidazol-1-yl)propyl)-N-(6-chloro-4-methylbenzo[d]thiazol-2-yl)-3-(furan-2-yl)acrylamide] | 2.6 (≈ 1.11 µg/mL)
Cc1cc(Cl)cc2sc(N3CCCC(Cn4ccnc4)C3)nc12 (centres unmarked) [Example 35, 6-chloro-2-{3-[(1H-imidazol-1-yl)methyl]piperidin-1-yl}-4-methyl-1,3-benzothiazole] | 66.7 (≈ 23.1 µg/mL)
Cc1cc(Cl)cc2sc(N(CCCn3ccnc3)C(=O)c3ccco3)nc12 [Example 2, N-(3-(1H-imidazol-1-yl)propyl)-N-(6-chloro-4-methylbenzo[d]thiazol-2-yl)furan-2-carboxamide] | 1.7 (≈ 0.682 µg/mL)
Cc1ccc(C(=O)N(CCCn2ccnc2)c2nc3c(C)cc(Cl)cc3s2)s1 [Example 9, N-(3-(1H-imidazol-1-yl)propyl)-N-(6-chloro-4-methylbenzo[d]thiazol-2-yl)-5-methylthiophene-2-carboxamide] | 2.6 (≈ 1.12 µg/mL)
Cc1cc(Cl)cc2sc(N(CCCn3ccnc3)C(=O)c3cc4ccccc4o3)nc12 [Example 13, N-(3-(1H-imidazol-1-yl)propyl)-N-(6-chloro-4-methylbenzo[d]thiazol-2-yl)benzofuran-2-carboxamide] | 8.8 (≈ 3.97 µg/mL)
Cc1cc(Cl)cc2sc(N(CCCn3ccnc3)C(=O)[C@H](Cc3ccccc3)NC(=O)OC(C)(C)C)nc12 [Example 21, (S)-tert-butyl (1-((3-(1H-imidazol-1-yl)propyl)(6-chloro-4-methylbenzo[d]thiazol-2-yl)amino)-1-oxo-3-phenylpropan-2-yl)carbamate] | 14.8 (≈ 8.2 µg/mL)
Cc1cc(Cl)cc2sc(N3CCC(CNC(=O)OC(C)(C)C)CC3)nc12 [Example 57] | > 100
Cc1cc(Cl)cc2sc(N(CCCn3ccnc3)C(=O)C(C)C)nc12 [Example 11, N-(3-(1H-imidazol-1-yl)propyl)-N-(6-chloro-4-methylbenzo[d]thiazol-2-yl)isobutyramide] | 2.7 (≈ 1.02 µg/mL)
